Reference: US20050197350A1, “Novel quinoline, tetrahydroquinazoline, and pyrimidine derivatives and methods of treatment related to the use thereof” (TAISHO PHARMACEUTICAL CO., LTD., priority 2003, published 2005)
Like-named read-outs stand apart in the source and are kept apart here.

System: MCH receptors
Assay: MCH receptor activity class (method not given)
[1] = MCH receptor, class by percent of control at 10^-7 M or IC50
[2] = activity class 1-3: percent of control at 10^-7 M or IC50
[3] = class by percent of control at 10^-7 M or IC50
[4] = MCH receptor activity class 1-3 (percent of control at 10^-7 M or IC50)
[5] = activity class per percent of control at 10^-7 M or IC50
[6] = class 1-3 by percent of control at 10^-7 M or IC50

Q: For CN(C)c1cc(N[C@H]2CC[C@@H](NC(=O)c3cccc(OC(F)(F)F)c3)CC2)nc2ccccc12 [compound 54, N-(cis-4-{[4-(dimethylamino)quinolin-2-yl]amino}cyclohexyl)-3-(trifluoromethoxy)benzamide], which class [1] is on record?
A: 2 (Class 2: The value of percent of control at 10^−7 M was from 40% to 60% or the value of IC′50 was from 50 nM to 200 nM.)

Q: With CN(C)c1ccnc(N[C@H]2CC[C@@H](NC(=O)OCc3ccc([N+](=O)[O-])cc3)CC2)n1 [compound 1628] as the molecule, how does the class [2] read?
A: 3 (Class 3 The value of percent of control at 10^−7 M was more than 60% or the value of IC50 was more than 200 nM.)

Q: With CN(C)c1cc(N[C@H]2CC[C@@H](NC(=O)COc3ccc(Cl)cc3)CC2)nc2ccccc12 [compound 96] as the molecule, how does the class [1] read?
A: 1 (Class 1: The value of percent of control at 10^−7 M was less than 40% or the value of IC50 was less than 50 nM.)

Q: How did the class [3] turn out when Cc1onc(-c2ccccc2Cl)c1C(=O)N[C@H]1CC[C@@H](Nc2nccc(N(C)C)n2)CC1 [compound 316] was run?
A: 3 (Class 3 The value of percent of control at 10^−7 M was more than 60% or the value of IC50 was more than 200 nM.)

Q: How did the class [1] turn out when CCCCc1ccc(NC(=S)N[C@H]2CC[C@@H](Nc3nc4c(c(N(C)C)n3)CCCC4)CC2)cc1 [compound 2022] was run?
A: 3 (Class 3 The value of percent of control at 10^−7 M was more than 60% or the value of IC50 was more than 200 nM.)

Q: With CN(C)c1nc(N[C@H]2CC[C@@H](NC(=O)Nc3ccc(Br)cc3F)CC2)nc2c1CCCC2 [compound 1884] as the molecule, how does the class [3] read?
A: 3 (Class 3 The value of percent of control at 10^−7 M was more than 60% or the value of IC50 was more than 200 nM.)

Q: With CN(C)c1nc(N[C@H]2CC[C@@H](NC(=O)Nc3ccccc3Cl)CC2)nc2c1CCCC2 [compound 1659] as the molecule, how does the class [2] read?
A: 3 (Class 3 The value of percent of control at 10^−7 M was more than 60% or the value of IC50 was more than 200 nM.)

Q: Cc1cccc(C(C)(C)C)c1NC(=O)NC[C@H]1CC[C@@H](Nc2cc(N(C)C)c3ccccc3n2)CC1 [compound 2383, N-(2-tert-butyl-6-methylphenyl)-N′-[(cis-4-{[4-(dimethylamino)quinolin-2-yl]amino}cyclohexyl)methyl]urea] was tested. Which class [4] did it give?
A: 1 (Class 1: The value of percent of control at 10^−7 M was less than 40% or the value of IC50 was less than 50 nM.)

Q: With COc1ccc(OC)c(CNC[C@H]2CC[C@@H](Nc3cc(N(C)C)c4ccccc4n3)CC2)c1 [compound 1125] as the molecule, how does the class [5] read?
A: 3 (Class 3 The value of percent of control at 10^−7 M was more than 60% or the value of IC50 was more than 200 nM.)

Q: Which class [3] does the source give for CN(C)c1cc(N[C@H]2CC[C@@H](CNCc3ccc4c(c3)OCO4)CC2)nc2ccccc12 [compound 1182] here?
A: 3 (Class 3 The value of percent of control at 10^−7 M was more than 60% or the value of IC50 was more than 200 nM.)

Q: Which class [3] does the source give for “(3-{(1S)-2-[(cis-4-([4-(dimethylamino)-5,6,7,8-tetrahydroquinazolin-2-yl]amino}cyclohexyl)amino]-1-methylethyl}phenyl)(phenyl)methanol [compound 1496]” here?
A: 3 (Class 3 The value of percent of control at 10^−7 M was more than 60% or the value of IC50 was more than 200 nM.)

Q: Which class [3] does the source give for CCOc1ccccc1NC(=O)N[C@H]1CC[C@@H](Nc2cc(N(C)C)c3ccccc3n2)CC1 [compound 2142] here?
A: 3 (Class 3 The value of percent of control at 10^−7 M was more than 60% or the value of IC50 was more than 200 nM.)

Q: For Cc1oc(-c2ccccc2)cc1CNC[C@H]1CC[C@@H](Nc2cc(N(C)C)c3ccccc3n2)CC1 [compound 1192], which class [3] is on record?
A: 3 (Class 3 The value of percent of control at 10^−7 M was more than 60% or the value of IC50 was more than 200 nM.)

Q: For CCCCCNC(=O)N[C@H]1CC[C@@H](Nc2nc3c(c(N(C)C)n2)CCCC3)CC1 [compound 1703], which class [2] is on record?
A: 3 (Class 3 The value of percent of control at 10^−7 M was more than 60% or the value of IC50 was more than 200 nM.)

Q: Which class [3] does the source give for COc1cc(OC)c(NC(=S)N[C@H]2CC[C@@H](Nc3nc4c(c(N(C)C)n3)CCCC4)CC2)cc1Cl [compound 1777] here?
A: 1 (Class 1: The value of percent of control at 10^−7 M was less than 40% or the value of IC50 was less than 50 nM.)

Q: Which class [3] does the source give for CN(C)c1nc(N[C@H]2CC[C@@H](NCc3cncc(-c4ccc(F)cc4)c3)CC2)nc2c1CCCC2 [compound 1356] here?
A: 3 (Class 3 The value of percent of control at 10^−7 M was more than 60% or the value of IC50 was more than 200 nM.)

Q: For Cc1cc(N(C)C)nc(N[C@H]2CC[C@@H](NC(=O)c3ccc(Cl)o3)CC2)n1 [compound 2980, 5-chloro-N-(cis-4-{[4-(dimethylamino)-6-methylpyrimidin-2-yl]amino}cyclohexyl)-2-furamide], which class (class by percent of control at 10^−7 M or IC50) is on record?
A: 1 (Class 1: The value of percent of control at 10^−7 M was less than 40% or the value of IC50 was less than 50 nM.)

Q: How did the class [2] turn out when CC(NC(=O)NC1CCC(Nc2nc3c(c(N(C)C)n2)CCCC3)CC1)c1ccccc1 (stereo not shown) [compound 1707] was run?
A: 3 (Class 3 The value of percent of control at 10^−7 M was more than 60% or the value of IC50 was more than 200 nM.)

Q: CN(C)c1nc(N[C@H]2CC[C@@H](NC(=O)c3cc(C(C)(C)C)nn3Cc3ccccc3)CC2)nc2c1CCCC2 [compound 521] was tested. Which class [6] did it give?
A: 2 (Class 2: The value of percent of control at 10^−7 M was from 40% to 60% or the value of IC′50 was from 50 nM to 200 nM.)

Q: Cc1cccc([N+](=O)[O-])c1NC(=O)NC[C@H]1CC[C@@H](Nc2cc(N(C)C)c3ccccc3n2)CC1 [compound 2401] was tested. Which class [4] did it give?
A: 3 (Class 3 The value of percent of control at 10^−7 M was more than 60% or the value of IC50 was more than 200 nM.)

Q: For Cc1cc(N[C@H]2CC[C@@H](NC(=O)c3cccc(C(F)(F)F)c3)CC2)nc2ccccc12 [Example 2546, N-{cis-4-[(4-methylquinolin-2-yl)amino]cyclohexyl}-3-(trifluoromethyl)benzamide], which class is on record?
A: 3

Q: How did the class [3] turn out when Cc1cccc(C(C)(C)C)c1NC(=O)N[C@H]1CC[C@@H](Nc2cc(N(C)C)c3ccccc3n2)CC1 [compound 2113, N-(2-tert-butyl-6-methylphenyl)-N′-(cis-4-{[4-(dimethylamino)quinolin-2-yl]amino}cyclohexyl)urea] was run?
A: 1 (Class 1: The value of percent of control at 10^−7 M was less than 40% or the value of IC50 was less than 50 nM.)

Q: How did the class [3] turn out when CN(C)c1cc(N[C@H]2CC[C@@H](CNCCCCc3ccc([N+](=O)[O-])cc3)CC2)nc2ccccc12 [compound 1480] was run?
A: 3 (Class 3 The value of percent of control at 10^−7 M was more than 60% or the value of IC50 was more than 200 nM.)

Q: Which class does the source give for Cc1cc(N(C)C)nc(N[C@H]2CC[C@@H](C(=O)NCc3cccc(F)c3F)CC2)n1 [Example 2584, cis-N-(2,3-difluorobenzyl)-4-{[4-(dimethylamino)-6-methylpyrimidin-2-yl]amino}cyclohexanecarboxamide] here?
A: 1

Q: Which class [2] does the source give for CN(C)c1ccnc(N[C@H]2CC[C@@H](NC(=O)Oc3ccccc3)CC2)n1 [compound 1632] here?
A: 3 (Class 3 The value of percent of control at 10^−7 M was more than 60% or the value of IC50 was more than 200 nM.)

Q: For COc1cc(C(=O)N[C@H]2CC[C@@H](Nc3cc(N(C)C)c4ccccc4n3)CC2)cc(OC)c1OC [compound 115], which class [1] is on record?
A: 3 (Class 3 The value of percent of control at 10^−7 M was more than 60% or the value of IC50 was more than 200 nM.)

Q: Which class [6] does the source give for CN(C)c1nc(N[C@H]2CC[C@@H](NC(=O)COc3ccccc3)CC2)nc2c1CCCC2 [compound 548] here?
A: 1 (Class 1: The value of percent of control at 10^−7 M was less than 40% or the value of IC50 was less than 50 nM.)

Q: COc1ccc(OC)c(CCNC(=S)N[C@H]2CC[C@@H](Nc3nc4c(c(N(C)C)n3)CCCC4)CC2)c1 [compound 2034] was tested. Which class [1] did it give?
A: 3 (Class 3 The value of percent of control at 10^−7 M was more than 60% or the value of IC50 was more than 200 nM.)

Q: With Cc1ccc([N+](=O)[O-])c(NC(=O)N[C@H]2CC[C@@H](Nc3nc4c(c(N(C)C)n3)CCCC4)CC2)c1C [compound 1798] as the molecule, how does the class [3] read?
A: 3 (Class 3 The value of percent of control at 10^−7 M was more than 60% or the value of IC50 was more than 200 nM.)

Q: Which class [3] does the source give for CN(C)c1ccnc(N[C@H]2CC[C@@H](NC(=O)COc3ccccc3)CC2)n1 [compound 330, N-(cis-4-{[4-(dimethylamino)pyrimidin-2-yl]amino}cyclohexyl)-2-phenoxyacetamide] here?
A: 2 (Class 2: The value of percent of control at 10^−7 M was from 40% to 60% or the value of IC′50 was from 50 nM to 200 nM.)

Q: Which class [1] does the source give for CN(C)c1nc(N[C@H]2CC[C@@H](NC(=S)Nc3cc([N+](=O)[O-])ccc3Cl)CC2)nc2c1CCCC2 [compound 2035] here?
A: 3 (Class 3 The value of percent of control at 10^−7 M was more than 60% or the value of IC50 was more than 200 nM.)

Q: Which class [3] does the source give for CCOc1ccc(CNC[C@H]2CC[C@@H](Nc3nc4c(c(N(C)C)n3)CCCC4)CC2)c(OCC)c1 [compound 1412] here?
A: 1 (Class 1: The value of percent of control at 10^−7 M was less than 40% or the value of IC50 was less than 50 nM.)

Q: With Cc1ccc(NC(=S)N[C@H]2CC[C@@H](Nc3nc4c(c(N(C)C)n3)CCCC4)CC2)cc1C [compound 2063] as the molecule, how does the class [1] read?
A: 3 (Class 3 The value of percent of control at 10^−7 M was more than 60% or the value of IC50 was more than 200 nM.)

Q: Cc1ccc(C(=O)CC(C(=O)N[C@H]2CC[C@@H](Nc3nc4c(c(N(C)C)n3)CCCC4)CC2)c2cn(C)c3ccccc23)cc1 (relative stereo) [compound 998] was tested. Which class [5] did it give?
A: 2 (Class 2: The value of percent of control at 10^−7 M was from 40% to 60% or the value of IC′50 was from 50 nM to 200 nM.)

Q: For CCCCCCCCOC(=O)N[C@H]1CC[C@@H](Nc2nc3c(c(N(C)C)n2)CCCC3)CC1 [compound 1586], which class [2] is on record?
A: 3 (Class 3 The value of percent of control at 10^−7 M was more than 60% or the value of IC50 was more than 200 nM.)

Q: With Cc1ccc(S(=O)(=O)N[C@H](CN[C@H]2CC[C@@H](Nc3cc(N(C)C)c4ccccc4n3)CC2)Cc2ccccc2)cc1 [compound 1456] as the molecule, how does the class [3] read?
A: 3 (Class 3 The value of percent of control at 10^−7 M was more than 60% or the value of IC50 was more than 200 nM.)

Q: How did the class [1] turn out when CN(C)c1cc(N[C@H]2CC[C@@H](NC(=O)c3ccccc3SC(F)F)CC2)nc2ccccc12 [compound 82] was run?
A: 3 (Class 3 The value of percent of control at 10^−7 M was more than 60% or the value of IC50 was more than 200 nM.)
